The subject of data set [1] is WT1. The data set can be described thus: WT1 expression in PC3M tumours grown as subcutaneous implants in treated mice. Format: in vivo, athymic nude mice. Conditions: PC3M prostate cancer subcutaneous implants, mice treated with WT1 antisense; preliminary, data not shown. On the procedure:
The primer pair and probe for the quantification of WT1 were designed using the Primer Express program (Applied Biosystems) according to the recommended guidelines and as described above.: WT1—Forward primer, 5′-[…]-3′, reverse primer, 5′, […]-3′, and probe, 5′-[…]-3′. Each assay sample was analyzed in triplicate as above, and multiplexed to facilitate the measurement of gene expression levels relative to GAPDH (in vivo tumour samples) or 18 s ribosomal RNA expression (ribosomal RNA control reagents, Applied Biosystems) (in vitro cell line samples) using the standard curve method.
Previous gene profiling studies following treatment of K562 cells with WT1 directed ASOs, identified GPC5 as a putative WT1 target gene (manuscript in preparation). Downregulation of GPC5 expression following WT1 antisense treatment and correlating with reduced WT1 expression was confirmed in independent experiments (see FIG. 6). […] Direct transcriptional regulation of GPC5 by WT1 is likely since GPC5 has two WT1 consensus binding sites in its promoter region.

The subject of data set [2] is GPC5. The data set can be described thus: GPC5 expression in PC3M tumours grown as subcutaneous implants in treated mice. Format: in vivo, athymic nude mice. As to conditions: preliminary. On the procedure: (§1) To measure the amount of mature mRNA copies of GPC5 and GPC6 the probe was designed across the exon 1-exon 2 boundary and the exon 7-exon 8 boundary respectively. Applied Biosystems' Predeveloped GAPDH (Glyceraldehyde 3-phosphate dehydrogenase) was used as an endogenous control. 25 μL multiplex PCR reactions were run using 2× Universal TaqMan® Master Mix (Applied Biosystems Pt No. 4304437), the concentration of primers and probes shown in Table 1 and 10 ng of DNA or cDNA. These samples were run in triplicate under standard operating conditions on an ABI7700 SDS TaqMan® Machine (Applied Biosystems, CA). […] Thus, the amount of GPC5 and GPC6 was measured relative to either normal genomic DNA in the case of genomic measurements and to normal muscle in the case of expression measurements. Normal genomic DNA was extracted from the blood of a healthy donor, normal muscle cDNA was produced from RNA extracted from a pool of 11 normal muscle biopsies.
Previous gene profiling studies following treatment of K562 cells with WT1 directed ASOs, identified GPC5 as a putative WT1 target gene (manuscript in preparation). Downregulation of GPC5 expression following WT1 antisense treatment and correlating with reduced WT1 expression was confirmed in independent experiments (see FIG. 6). […]

Data set [3] concerns GPC5 mRNA. Kind of data set: GPC5 mRNA quantification (TaqMan) after electroporation of antisense oligonucleotides into K562 cells. It counts as cell-based, human. On the procedure: as §1, with “biopsies. […]” for “biopsies.”
On the technique in general: Quantitative PCR measures a nucleic acid by following its amplification.

For data set [4], the system named is K562 cells. Kind of data set: Clonogenic cell survival assay in soft agar, K562 cells. It counts as cell-based, human. On the procedure: Antisense or control oligonucleotides were dissolved in PBS and introduced into K562 cells by low voltage electroporation: 40 μl of appropriately diluted ASOs were combined with 360 μl of cell suspension at 2×10^7 cells/ml and cells were electroporated (Bio-Rad Gene Pulser® II Electroporation system with Pulse Controller Plus capacitance extender accessory module, Bio-Rad Laboratories Ltd, Hemel Hempstead, Herts, UK) using 300V and a capacitor value of 1000 μF, and diluted to 10 ml with complete medium. From each sample appropriate duplicate aliquots of cells were serially diluted in complete medium for assessment of cytotoxicity while the remaining cells were incubated at 37° C. for 24 hours ana RNA extracted for quantification of GPC5 and/or WT1 expression levels.
In this assay, cells are grown at low density in suspension in soft agar following treatment. […] 2 ml aliquots of diluted cells were added to polystyrene tubes (Elkay Products (UK) Ltd., Basingstoke, Hampshire, UK) containing 3 ml of medium supplemented with 20% FCS and 0.2% Agar Noble (DIFCO Laboratories, Detroit, Mich.), incubated at 37° C., and colonies containing at least 32 cells counted after 14 days. The number of colonies formed following drug treatment were compared to the number obtained following sham electroporation or a control scrambled oligonucleotide and expressed as % control treatment. […]

The subject of data set [5] is HL-60. The data set can be described thus: Clonogenic cell survival assay in soft agar, HL-60 control leukaemic cell line not expressing GPC5. It counts as cell-based. As to conditions: HL-60 cells, compared to sham-treated. On the procedure:
In this assay, cells are grown at low density in suspension in soft agar following treatment. Each colony formed derives from a single surviving cell. 2 ml aliquots of diluted cells were added to polystyrene tubes (Elkay Products (UK) Ltd., Basingstoke, Hampshire, UK) containing 3 ml of medium supplemented with 20% FCS and 0.2% Agar Noble (DIFCO Laboratories, Detroit, Mich.), incubated at 37° C., and colonies containing at least 32 cells counted after 14 days. The number of colonies formed following drug treatment were compared to the number obtained following sham electroporation or a control scrambled oligonucleotide and expressed as % control treatment. In a number of separate experiments, control plating efficiencies ranged from 22-38%, with 800-1600 cells typically plated. In addition, cells from the dilution series (approx 10^3-10^4 cells/ml) were allowed to grow up in suspension culture in parallel for 3-5 days in order to confirm cytotoxicity.
Two active compounds, ISIS 276107 and ISIS 276119, were identified in this primary screen, reducing GPC5 levels to less than 30% control levels and reducing cell survival by greater than 80% (FIG. 3A). […] FIGS. 3B and C show the effects of ISIS 276107 and a control compound (ISIS 276124) at varying concentrations in the same assay.

For “ASWT1exon5: WT1 antisense oligonucleotide targeting WT1 exon 5, GCCCCTTCTGTCCATTTCACT (SEQ ID NO: 26)”, the “decrease in WT1 expression levels” value in data set [1] was 50%. In addition, in data set [2] (PC3M prostate cancer subcutaneous implants, mice treated with WT1 antisense, data not shown), the “reduction in GPC5 expression” value is given as 30%.

For `CC(=O)O[C@@]12CO[C@@H]1C[C@H](O)[C@@]1(C)C(=O)[C@H](O)C3=C(C)[C@@H](OC(=O)[C@H](O)[C@@H](NC(=O)OC(C)(C)C)c4ccccc4)C[C@@](O)([C@@H](OC(=O)c4ccccc4)[C@H]21)C3(C)C` [docetaxol], the “increase in GPC5 expression” value in data set [2] (PC3M tumours, mice treated with 15 mg/kg) is reported as 5 fold.

“ISIS 276124: control oligonucleotide, TGGATTTGCTTTACACATCACT (SEQ ID NO: 25)”: the “effect on GPC5 expression / GPC5 levels” value in data set [3] is “not to affect”. In data set [4], the “effect on cell viability / cell survival” value is “not to affect”. Also, the “colony number following treatment” value in data set [5] is given as “no decrease”.

“ISIS 276107: 20 mer 2'-MOE chimeric phosphorothioate GPC5 antisense oligonucleotide, CAGCCCCCTGACAGCTCCCA (SEQ ID NO: 23) (all phosphorothioate, sugars by position and methylation of C not given here; 2'-MOE wings flank eight-deoxy central gap)”: the “colony number following treatment” value in data set [5] was “no decrease”.

These data come from patent publication US7855182B2, “Materials and methods for treatment of cancer” (The Institute of Cancer Research; Royal Cancer Hospital, priority 2004, dated 2010).
